Consider 25 molecules from patent US20260317320A1, “C5AR1 ANTAGONISTS AND USES THEREOF” (Vanqua Bio, Inc., priority 2022, published 2026).

For orientation: IC50 means the concentration that gives 50% inhibition.

A value given as a limit tells only on which side of the number the result lay.

For the first assay, the target named is T1, complement C5a receptor 1 (C5aR1) (Homo sapiens, UniProt P21730).
T1 construct: β-galactosidase fragment (PathHunter enzyme complementation); host or cells: CHO-K1 (PathHunter CHO-K1 C5aR1 β-arrestin cell line)
T1 sequence (P21730 1-350): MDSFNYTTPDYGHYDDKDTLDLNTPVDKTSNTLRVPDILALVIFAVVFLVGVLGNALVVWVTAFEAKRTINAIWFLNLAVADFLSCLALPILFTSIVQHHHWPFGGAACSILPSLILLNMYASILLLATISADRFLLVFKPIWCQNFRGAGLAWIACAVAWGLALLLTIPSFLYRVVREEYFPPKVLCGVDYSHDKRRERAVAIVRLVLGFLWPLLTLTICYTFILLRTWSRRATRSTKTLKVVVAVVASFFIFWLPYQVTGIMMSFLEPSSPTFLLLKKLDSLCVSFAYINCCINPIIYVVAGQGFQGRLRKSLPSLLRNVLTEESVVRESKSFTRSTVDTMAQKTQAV
As to the kind of experiment: β-arrestin recruitment via C5aR1 activation in live CHO-K1 cells (PathHunter), antagonist mode. The format is cell-based.
Conditions: not given; call rule not given here
As to the method: (§1) Exemplary compounds were evaluated for classical GPCR β-arrestin recruitment via complement C5a receptor 1 (C5aR1) activation in live CHO-K1 cells. This cell line expresses two fragments of the […] protein coupled to β-arrestin and C5aR1. Complementation of the two fragments allows for the assessment of both C5aR1 agonism and antagonism. Recombinant hC5a (EC90) was used as the competing natural agonist against disclosed compounds (more information on the expanded protocol and cell line can be found on the manufacturer's website: PathHunter® CHO-K1 C5aR1 β-arrestin cell line, DiscoverX, Catalog No. 93-0557C2). […] IC50 ranges: A: IC50≤500 nM; B: 500 nM<IC50≤5 uM; C: 5 uM<IC50≤100 uM; D: IC50>100 uM.
(Arrestin recruitment assays detect the binding of arrestin to an activated receptor.)
With `Cc1ccccc1N1CCC(c2cc3nccnc3n(Cc3nccnc3C)c2=O)CC1` [compound 109, 5-((3-Methylpyrazin-2-yl)methyl)-7-(1-(o-tolyl)piperidin-4-yl)pyrido[2,3-b]pyrazin-6(5H)-one], the IC50 lay in the range of 500 to 5000 nM.

The same assay, now with this note: antagonist mode; recombinant hC5a (EC90) as competing natural agonist; live CHO-K1 cells; read-out: [Antagonist] B-arrestin2 recruitment: Average IC50.
Take `Cc1c(C2CCN(c3ccccc3C(F)(F)F)CC2)c(=O)n(Cc2nccnc2F)c2nccnc12` [compound 77, 5-((3-Fluoropyrazin-2-yl)methyl)-8-methyl-7-(1-(2-(trifluoromethyl)phenyl)piperidin-4-yl)pyrido[2,3-b]pyrazin-6(5H)-one]: the 50% inhibitory concentration (IC50) fell in the range of 500 to 5000 nM. Still for that read-out and setting: as for `Cc1cnc2cc(C3CCN(c4nnccc4C)CC3)c(=O)n(Cc3ncccc3C(F)(F)F)c2n1` [compound 115, 3-Methyl-7-(1-(4-methylpyridazin-3-yl)piperidin-4-yl)-5-((3-(trifluoromethyl)pyridin-2-yl)methyl)pyrido[2,3-b]pyrazin-6(5H)-one], the figure is 500 to 5000 nM; as for `Cc1c(C2CCN(c3ccccc3C(F)(F)F)CC2)c(=O)n(Cc2ncccc2F)c2nccnc12` [compound 83, 5-((3-Fluoropyridin-2-yl)methyl)-8-methyl-7-(1-(2-(trifluoromethyl)phenyl)piperidin-4-yl)pyrido[2,3-b]pyrazin-6(5H)-one], less than 500 nM. On the same count and under the same terms, in the case of `Cc1ncc2cc(N3CCN(c4c(C)cccc4F)CC3)c(=O)n(Cc3ncccc3OC(F)(F)F)c2n1` [compound 110, 6-(4-(2-Fluoro-6-methylphenyl)piperazin-1-yl)-2-methyl-8-((3-(trifluoromethoxy)pyridin-2-yl)methyl)pyrido[2,3-d]pyrimidin-7(8H)-one] it was less than 500 nM.

With `Cc1cccc(F)c1N1CCC(c2cc3nccnc3n(Cc3cncnc3C(F)(F)F)c2=O)CC1` [compound 116, 7-(1-(2-Fluoro-6-methylphenyl)piperidin-4-yl)-5-((4-(trifluoromethyl)pyrimidin-5-yl)methyl)pyrido[2,3-b]pyrazin-6(5H)-one], the IC50 lay within 500 to 5000 nM. On the same count and under the same terms, as for `Cc1cnc2cc(C3CCN(c4c(C)cccc4F)CC3)c(=O)n(Cc3ncccc3C(F)(F)F)c2c1` [compound 90, 3-(1-(2-Fluoro-6-methylphenyl)piperidin-4-yl)-7-methyl-1-((3-(trifluoromethyl)pyridin-2-yl)methyl)-1,5-naphthyridin-2(1H)-one], the figure is 5000 to 100000 nM; as for `Cc1cnc2c(C)c(C3CCN(c4c(C)cccc4F)CC3)c(=O)n(Cc3nccnc3C)c2n1` [compound 103, 7-(1-(2-Fluoro-6-methylphenyl)piperidin-4-yl)-3,8-dimethyl-5-((3-methylpyrazin-2-yl)methyl)pyrido[2,3-b]pyrazin-6(5H)-one], 500 to 5000 nM. In the case of `Cc1ccc2cc(C3CCN(c4c(C)cccc4F)CC3)c(=O)n(Cc3ncccc3C(F)(F)F)c2n1` [compound 94, 3-(1-(2-Fluoro-6-methylphenyl)piperidin-4-yl)-7-methyl-1-((3-(trifluoromethyl)pyridin-2-yl)methyl)-1,8-naphthyridin-2(1H)-one], the IC50 was less than 500 nM. On the same count and under the same terms, in the case of `Cc1cnc2cc(C3CCN(c4ccnnc4C)CC3)c(=O)n(Cc3ncccc3C(F)(F)F)c2n1` [compound 113, 3-Methyl-7-(1-(3-methylpyridazin-4-yl)piperidin-4-yl)-5-((3-(trifluoromethyl)pyridin-2-yl)methyl)pyrido[2,3-b]pyrazin-6(5H)-one] it was more than 100000 nM; in that of `Cc1cnc2cc([C@H]3CC[C@H](c4c(C)cccc4F)CC3)c(=O)n(Cc3ncccc3C(F)(F)F)c2n1` [121a, 7-(trans-4-(2-Fluoro-6-methylphenyl)cyclohexyl)-3-methyl-5-((3-(trifluoromethyl)pyridin-2-yl)methyl)pyrido[2,3-b]pyrazin-6(5H)-one], less than 500 nM; in that of `Cc1cnc2cc([C@H]3CC[C@H](c4c(C)cccc4F)CC3)c(=O)n(Cc3nccnc3C(F)(F)F)c2n1` [99b, 7-(trans-4-(2-Fluoro-6-methylphenyl)cyclohexyl)-3-methyl-5-((3-(trifluoromethyl)pyrazin-2-yl)methyl)pyrido[2,3-b]pyrazin-6(5H)-one], less than 500 nM. Still for that read-out and setting: in the case of `Cc1cccc(F)c1N1CCC(c2cc3nccnc3n(Cc3nccnc3C(F)F)c2=O)CC1` [compound 122, 5-((3-(Difluoromethyl)pyrazin-2-yl)methyl)-7-(1-(2-fluoro-6-methylphenyl)piperidin-4-yl)pyrido[2,3-b]pyrazin-6(5H)-one] it was less than 500 nM. Turning to `Cc1cnc2c(C)c(C3CCN(c4c(C)cccc4F)CC3)c(=O)n(Cc3ncccc3C(F)(F)F)c2n1` [compound 75, 7-(1-(2-Fluoro-6-methylphenyl)piperidin-4-yl)-3,8-dimethyl-5-((3-(trifluoromethyl)pyridin-2-yl)methyl)pyrido[2,3-b]pyrazin-6(5H)-one], the IC50 was in the range of 500 to 5000 nM. As for `Cc1nccnc1Cn1c(=O)c(C2CCN(c3ccccc3OC(F)F)CC2)cc2nccnc21` [compound 111, 7-(1-(2-(Difluoromethoxy)phenyl)piperidin-4-yl)-5-((3-methylpyrazin-2-yl)methyl)pyrido[2,3-b]pyrazin-6(5H)-one], the IC50 was in the range of 5000 to 100000 nM. Same read-out and setting: as for `Cc1ncc2cc(N3CCN(c4c(C)cccc4F)CC3)c(=O)n(Cc3ncccc3C(F)(F)F)c2n1` [compound 119, 6-(4-(2-Fluoro-6-methylphenyl)piperazin-1-yl)-2-methyl-8-((3-(trifluoromethyl)pyridin-2-yl)methyl)pyrido[2,3-d]pyrimidin-7(8H)-one], the figure is 500 to 5000 nM. On the same count and under the same terms, as for `Cc1cnc2cc(N3CCC(c4c(C)cccc4F)CC3)c(=O)n(Cc3nccnc3C(F)(F)F)c2n1` [compound 95, 7-(4-(2-Fluoro-6-methylphenyl)piperidin-1-yl)-3-methyl-5-((3-(trifluoromethyl)pyrazin-2-yl)methyl)pyrido[2,3-b]pyrazin-6(5H)-one], the figure is 500 to 5000 nM; as for `Cc1cnc2cc(C3CCN(c4c(C)cccc4F)CC3)c(=O)n(Cc3nccnc3C)c2n1` [compound 106, 7-(1-(2-Fluoro-6-methylphenyl)piperidin-4-yl)-3-methyl-5-((3-methylpyrazin-2-yl)methyl)pyrido[2,3-b]pyrazin-6(5H)-one], less than 500 nM; as for `Cc1cnc2cc(N3CCN(c4c(C)cccc4F)CC3)c(=O)n(Cc3nccnc3C)c2n1` [compound 104, 7-(4-(2-Fluoro-6-methylphenyl)piperazin-1-yl)-3-methyl-5-((3-methylpyrazin-2-yl)methyl)pyrido[2,3-b]pyrazin-6(5H)-one], 500 to 5000 nM. Still for that read-out and setting: as for `Cc1cnc2cc(N3CCC(c4c(C)cccc4F)CC3)c(=O)n(Cc3ncccc3C(F)(F)F)c2n1` [compound 101, 7-(4-(2-Fluoro-6-methylphenyl)piperidin-1-yl)-3-methyl-5-((3-(trifluoromethyl)pyridin-2-yl)methyl)pyrido[2,3-b]pyrazin-6(5H)-one], the figure is 500 to 5000 nM.

The next assay deals with T1, complement C5a receptor 1 (C5aR1). In words: β-arrestin recruitment via C5aR1 activation in live CHO-K1 cells (PathHunter), agonist mode. The format is cell-based.
Conditions: not given
As to the method:
as §1
On to `Cc1ccc2c(c1)nc(C1CCN(c3c(C)cccc3F)CC1)c(=O)n2Cc1ncccc1C(F)(F)F` [142B, 3-(1-(2-Fluoro-6-methylphenyl)piperidin-4-yl)-6-methyl-1-((3-(trifluoromethyl)pyridin-2-yl)methyl)quinoxalin-2(1H)-one], for which the “[Agonist] B-arrestin2 recruitment: Average EC50 (nM)” value (“[Agonist] B-arrestin2 recruitment” below) is “Non-Active”.

For the molecule `Cc1ccc2cc([C@H]3CC[C@H](c4c(C)cccc4F)CC3)c(=O)n(Cc3nccnc3C(C)(F)F)c2n1` [compound 269, 1-{[3-(1,1-Difluoroethyl)-2-pyrazinyl]methyl}-7-methyl-3-[(1r,4r)-4-(2-fluoro-6-tolyl)cyclohexyl]-1,8-diaza-2(1H)-naphthalenone], the “[Agonist] B-arrestin2 recruitment” value is “Non-Active”.

The same assay, now with this note: at 10 μM.
Consider `Cc1cccc(F)c1[C@H]1CC[C@H](c2cc3nccnc3n(Cc3ncccc3C(F)(F)F)c2=O)C1` [200B, 7-((1S,3S)-3-(2-Fluoro-6-methylphenyl)cyclopentyl)-5-((3-(trifluoromethyl)pyridin-2-yl)methyl)pyrido[2,3-b]pyrazin-6(5H)-one], for which the “[Agonist] B-arrestin2 recruitment” value is “Non-Active at 10 μM”. On the same count and under the same terms, as for `Cc1cccc(F)c1[C@@H]1CC[C@H](c2cc3nccnc3n(Cc3ncccc3C(F)(F)F)c2=O)C1` [200A, 7-((1S,3R)-3-(2-Fluoro-6-methylphenyl)cyclopentyl)-5-((3-(trifluoromethyl)pyridin-2-yl)methyl)pyrido[2,3-b]pyrazin-6(5H)-one], the entry is “Non-Active at 10 μM”; as for `Cc1cnc2cc([C@H]3CC[C@H](c4c(C)ccc5c4cnn5C)CC3)c(=O)n(Cc3ncccc3C(F)(F)F)c2n1` [compound 218, 7-((1r,4r)-4-(1,5-Dimethyl-1H-indazol-4-yl)cyclohexyl)-3-methyl-5-((3-(trifluoromethyl)pyridin-2-yl)methyl)pyrido[2,3-b]pyrazin-6(5H)-one], “Non-Active at 10 μM”.
